Experiment [1] concerns the target Acetylcholinesterase (Homo sapiens) (UniProt P22303). Kind of experiment: Inhibition of acetylcholinesterase (unknown origin) using acetylthiocholine iodide as substrate at 500 uM incubated for 15 min prior to substrate addition measured for 15 min by spectrophotometric analysis.
The species entered for the next experiment is Homo sapiens. The experiment can be described thus: Inhibition of alpha-chymotrypsin (unknown origin) using N-succinyl-phenylalanine-p-nitroanilide as substrate at 500 uM incubated for 25 min prior to substrate by spectrophotometric analysis.
In experiment [2] the target is T1, Cholinesterase (Homo sapiens, UniProt P06276). The experiment can be described thus: Inhibition of butyrylcholinesterase (unknown origin) using butyrylthiocholine chloride as substrate incubated for 15 min prior to substrate addition measured for 15 min by spectrophotometric analysis.
In experiment [3] the target is T2, Beta-glucuronidase (Homo sapiens) (UniProt P08236).
T2 sequence (whole entry): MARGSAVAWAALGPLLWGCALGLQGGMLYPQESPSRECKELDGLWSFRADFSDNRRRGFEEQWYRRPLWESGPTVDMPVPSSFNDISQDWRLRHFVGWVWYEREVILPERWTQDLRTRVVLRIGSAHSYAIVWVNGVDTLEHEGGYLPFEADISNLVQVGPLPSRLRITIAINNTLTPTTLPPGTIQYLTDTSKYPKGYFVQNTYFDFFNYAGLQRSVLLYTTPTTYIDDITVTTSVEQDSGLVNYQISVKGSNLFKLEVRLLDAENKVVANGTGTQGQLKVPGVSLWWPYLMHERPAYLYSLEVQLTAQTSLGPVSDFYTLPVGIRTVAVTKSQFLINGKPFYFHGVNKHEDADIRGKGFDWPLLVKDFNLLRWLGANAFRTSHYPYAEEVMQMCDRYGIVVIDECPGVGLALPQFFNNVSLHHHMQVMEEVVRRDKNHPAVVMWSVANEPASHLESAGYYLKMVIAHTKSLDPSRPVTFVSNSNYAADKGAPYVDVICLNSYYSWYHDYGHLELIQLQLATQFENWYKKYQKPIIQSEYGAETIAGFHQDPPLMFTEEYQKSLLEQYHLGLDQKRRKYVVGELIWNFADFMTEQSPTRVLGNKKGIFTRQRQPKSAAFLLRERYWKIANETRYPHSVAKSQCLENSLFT
Kind of experiment: Inhibition of beta-glucuronidase (unknown origin) using p-nitrophenyl-beta-D-glucuronide as substrate at 500 uM incubated for 30 min prior to substrate addition by spectrophotometric analysis.

Experiment [4] concerns the target Urease (Canavalia ensiformis) (UniProt P07374). The experiment can be described thus: Inhibition of Canavalia ensiformis (jack bean) urease using urea as substrate at 500 uM after 15 min by indophenol-based spectrophotometric analysis.
In a further experiment the target is Urease (Canavalia ensiformis, UniProt P07374). Kind of experiment: Inhibition of Canavalia ensiformis (jack bean) urease using urea as substrate after 15 min by indophenol-based spectrophotometric analysis.
The target in experiment [5] is T1, Cholinesterase. Kind of experiment: Inhibition of butyrylcholinesterase (unknown origin) using butyrylthiocholine chloride as substrate at 500 uM incubated for 15 min prior to substrate addition measured for 15 min by spectrophotometric analysis.
A further experiment has as its target T3, Beta-glucuronidase (Homo sapiens, UniProt P08236).
T3 sequence (P08236 whole entry): T2 sequence (whole entry)
Kind of experiment: Inhibition of beta-glucuronidase (unknown origin) using p-nitrophenyl-beta-D-glucuronide as substrate incubated for 30 min prior to substrate addition by spectrophotometric analysis.

Data on four compounds can be found in ChEMBL document CHEMBL3045895 (Med Chem Res, 2012).

Activity calls are given as the source filed them. No cut-off for these calls is given here.

As a reminder, the IC50 is the concentration that gives 50% inhibition. Low values mean inhibition by little substance, high ones a need for much substance.

T1 sequence (P06276 whole entry): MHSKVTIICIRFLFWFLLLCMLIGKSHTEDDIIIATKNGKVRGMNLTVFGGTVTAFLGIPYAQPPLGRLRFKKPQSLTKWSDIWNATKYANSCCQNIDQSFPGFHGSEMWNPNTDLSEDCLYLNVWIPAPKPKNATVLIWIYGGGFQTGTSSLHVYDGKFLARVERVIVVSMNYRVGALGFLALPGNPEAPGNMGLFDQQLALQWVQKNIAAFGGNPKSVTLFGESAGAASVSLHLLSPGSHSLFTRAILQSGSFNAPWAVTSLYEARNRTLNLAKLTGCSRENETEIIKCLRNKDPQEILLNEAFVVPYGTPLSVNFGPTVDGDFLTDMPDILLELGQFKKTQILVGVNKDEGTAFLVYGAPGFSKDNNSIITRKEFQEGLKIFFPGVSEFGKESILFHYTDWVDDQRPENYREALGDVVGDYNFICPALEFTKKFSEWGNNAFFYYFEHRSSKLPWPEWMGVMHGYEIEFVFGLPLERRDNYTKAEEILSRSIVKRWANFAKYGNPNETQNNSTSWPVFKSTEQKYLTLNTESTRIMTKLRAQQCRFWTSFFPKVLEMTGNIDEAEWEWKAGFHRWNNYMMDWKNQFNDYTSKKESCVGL
Sequence of Urease (P07374 whole entry): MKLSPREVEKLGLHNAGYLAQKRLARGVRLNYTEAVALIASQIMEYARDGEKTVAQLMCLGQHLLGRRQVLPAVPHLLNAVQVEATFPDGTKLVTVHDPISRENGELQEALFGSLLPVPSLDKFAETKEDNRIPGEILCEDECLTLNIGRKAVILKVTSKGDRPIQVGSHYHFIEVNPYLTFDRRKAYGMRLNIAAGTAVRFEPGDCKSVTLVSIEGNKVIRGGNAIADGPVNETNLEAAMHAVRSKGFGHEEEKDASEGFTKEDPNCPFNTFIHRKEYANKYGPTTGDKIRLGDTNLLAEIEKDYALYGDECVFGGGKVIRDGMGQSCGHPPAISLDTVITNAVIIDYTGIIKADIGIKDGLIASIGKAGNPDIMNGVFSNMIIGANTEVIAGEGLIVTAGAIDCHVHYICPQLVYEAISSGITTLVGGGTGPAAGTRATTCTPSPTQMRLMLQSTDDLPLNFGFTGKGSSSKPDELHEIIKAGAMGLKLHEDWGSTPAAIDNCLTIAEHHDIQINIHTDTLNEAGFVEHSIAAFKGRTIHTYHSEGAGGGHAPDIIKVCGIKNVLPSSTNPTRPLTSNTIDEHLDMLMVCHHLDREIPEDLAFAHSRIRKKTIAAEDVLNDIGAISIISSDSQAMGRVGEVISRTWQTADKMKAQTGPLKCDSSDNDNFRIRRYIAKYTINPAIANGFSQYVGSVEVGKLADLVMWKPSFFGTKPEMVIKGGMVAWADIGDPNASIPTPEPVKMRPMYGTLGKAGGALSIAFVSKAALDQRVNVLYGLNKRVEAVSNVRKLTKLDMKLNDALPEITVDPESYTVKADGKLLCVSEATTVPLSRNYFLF
Sequence of Acetylcholinesterase (Homo sapiens) (P22303 whole entry): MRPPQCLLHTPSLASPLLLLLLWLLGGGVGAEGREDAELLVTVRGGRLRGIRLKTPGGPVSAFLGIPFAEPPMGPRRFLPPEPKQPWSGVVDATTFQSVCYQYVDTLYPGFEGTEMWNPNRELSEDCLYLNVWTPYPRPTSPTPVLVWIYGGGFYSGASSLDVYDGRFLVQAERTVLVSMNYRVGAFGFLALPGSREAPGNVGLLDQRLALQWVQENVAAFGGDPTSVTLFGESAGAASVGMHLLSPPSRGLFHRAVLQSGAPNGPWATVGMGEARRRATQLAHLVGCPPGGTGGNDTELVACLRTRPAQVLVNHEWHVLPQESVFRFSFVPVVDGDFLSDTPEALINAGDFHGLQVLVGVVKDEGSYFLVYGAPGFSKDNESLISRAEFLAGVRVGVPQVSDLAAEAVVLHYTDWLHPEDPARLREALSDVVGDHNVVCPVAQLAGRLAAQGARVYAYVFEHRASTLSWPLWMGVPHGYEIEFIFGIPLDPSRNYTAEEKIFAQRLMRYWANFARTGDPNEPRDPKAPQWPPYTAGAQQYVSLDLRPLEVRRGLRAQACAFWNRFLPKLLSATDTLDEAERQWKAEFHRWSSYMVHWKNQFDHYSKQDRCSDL
Sequence of Urease (Canavalia ensiformis) (P07374 whole entry, looked up): as the sequence (P07374 whole entry) above

For `Cc1cc(CN(CCO)Cc2cc(C)n(C)n2)nn1C`, the inhibition entry (in experiment [1]; in the experiment filed under Homo sapiens; in experiment [3]; in experiment [4]) was “inactive” each time. At Cholinesterase [2], this compound came in with a half-maximal inhibitory concentration (IC50) of 68 µM.
Turning to `Cc1cc(C)n(CO)n1`, the inhibition result (in experiment [1]; in the experiment filed under Homo sapiens; in experiment [3]; on Cholinesterase [5]) was “inactive” in each case. The compound further returned an IC50 against Urease of 94.3 µM.
Turning to `Cc1cc(C)n(CN(CCO)Cn2nc(C)cc2C)n1`, the inhibition result (in experiment [1]; in the experiment filed under Homo sapiens; in experiment [3]; at Cholinesterase [5]) was “inactive” in each case. Besides, the IC50 on Urease came to 44.7 µM.
As to `Cc1cc(C)n(CN(Cn2nc(C)cc2C)C2CCCCC2)n1`, the inhibition entry (in experiment [1]; in the experiment filed under Homo sapiens; at Cholinesterase [5]) was “inactive” in each case. Also, the concentration for half-maximal inhibition (IC50) on Urease worked out at 43.5 µM; against Beta-glucuronidase, 457 µM.
